The text below walks through data of patent publication US10730826B2, “Ketone inhibitors of lysine gingipain” (CORTEXYME, INC., priority 2016, dated 2020).

For assay [1], the system named is P. gingivalis W83. Nature of the assay: Mouse periodontitis model, alveolar bone loss. Particulars: week 5-10. It counts as in vivo, BALB/C mice. The procedure: (§1) At the beginning of the study, eight week old BALB/C female mice received antibiotic in drinking water (sulfamethoxazolum 0.87 mg/mL, trimethoprimum 0.17 mg/mL) for 10 days to reduce microbiome protection from experiment infection. Experimental periodontitis was induced by ligature placement followed by multiple exposures to P. gingivalis. During the ligature procedure mice were anesthetized with an intraperitoneal injection of ketamine (200 mg/kg) and xylazine (10 mg/kg), and eyes were lubricated with ointment (Puralube Vet; Pharmaderm, Melville, N.Y.). Next, a 5-0 silk ligature (Roboz Surgical Instrument Co.) was tied around the upper maxillary left and right second molar. Sutures were applied and tied gently to prevent damage to the periodontal tissue.
(§2) Mice (n=8-10/arm) were infected for 6 weeks every other day. For infection, […]. of bacteria solution were applied topically to the buccal surface of the maxillae. For preparation of the bacteria, P. gingivalis W83 (ATCC, Rockville, Md.) was streaked on Tryptic Soy Broth (TSB) agar plates (5% sheep blood, supplemented with 0.5 mg/mL L-cysteine, 5 μg/mL hemin, and 0.5 μg/mL vitamin K) and grown under anaerobic conditions at 37° C. for 5-7 days. Samples were then inoculated in TSB with hemin, vitamin K and L-cysteine (TSB-HKC) until mid-log phase (OD600=0.5-0.7). Bacteria were washed in PBS and prepared at final concentration of 1×10^10 cells/mL in PBS+2% methylcellulose (CMC).
(§3) Vehicle-treated animals received PBS only. At 5 weeks, a subgroup of animals (n=16) were euthanized to gather baseline measurements before the start of treatment. After 10 weeks, mice were euthanized and the brain, serum, and maxillary tissues were harvested and frozen in liquid nitrogen.
Bone loss in the maxillae was measured ex vivo blinded using OsiriX MD software (PixmeoSARL, Bernex, Switzerland). […] The distance between the cementoenamel junction (CEJ) and the alveolar bone crest (ABC) was measured from the CEJ to a reference line on the ABC which was placed perpendicular to the superficial root one each side of the second molar. […]

In assay [2] the test system is P. gingivalis. Nature of the assay: Related studies: brain abeta42 and neuroinflammation. The format is in vivo.
The target in assay [3] is Cathepsin L (Homo sapiens (Human), UniProt P07711). The assay can be described thus: Cathepsin L inhibition assay. The format is biochemical. As to conditions: Table 4; read-out: IC50 (nM) CatL.
Cathepsin L, sequence (P07711 114-333, species assumed): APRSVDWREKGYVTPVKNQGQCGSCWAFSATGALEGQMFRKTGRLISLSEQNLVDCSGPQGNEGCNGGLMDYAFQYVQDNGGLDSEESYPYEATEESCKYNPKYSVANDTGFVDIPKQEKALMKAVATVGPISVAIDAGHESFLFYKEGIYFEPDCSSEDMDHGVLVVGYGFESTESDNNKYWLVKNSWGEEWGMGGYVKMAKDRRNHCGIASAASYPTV
Assay [4] deals with P. gingivalis W83. The assay can be described thus: Mouse periodontitis model, P. gingivalis DNA in brain tissue (qPCR). The format is in vivo, BALB/C mice. Particulars: between week 5 and 10. How it is done:
as §1, §2, §3
DNA was extracted from brain tissue using the DNeasyBLOOD & TISSUE KIT (Qiagen, Germany) according to manufacturer's protocol. […] The number of copies of the P. gingivalis genome was calculated by matching Cq values with a standard curve prepared from serial dilutions of cultured P. gingivalis W83 (WT). […]

For assay [5], the system named is arginine gingipain, Rgp. The assay can be described thus: Inhibition of arginine gingipain. It counts as biochemical, Porphyromonas gingivalis. As to conditions: 100 nM.

Take `NCCCC[C@H](NC(=O)C1CCCC1)C(=O)COc1c(F)ccc(F)c1F` [Compound 1, (S)—N-(7-amino-2-oxo-1-(2,3,6-trifluorophenoxy)heptan-3-yl)cyclopentanecarboxamide]: the figures for the alveolar bone loss entry in assay [1] (3 mg/kg oral b.i.d.), in assay [1] (10 mg/kg oral b.i.d.) and in assay [1] (30 mg/kg oral b.i.d.) were “trended to improvement but did not result in significant improvement”, “improved” and “improved”, respectively. Moreover, in assay [2], the “induction of brain abeta42” value is “reduce induction”. In addition, in assay [2], the neuroinflammation entry was “reduce induction”. For the same compound, the IC50 (commonly the concentration that inhibits the measured activity by half) in assay [3] stood at 4680 nM. The “reduction in P. gingivalis DNA copy number in brain tissue” value in assay [4] (3 mg/kg) is given as approximately 50%; in assay [4] (10 mg/kg), approximately 50%; in assay [4] (30 mg/kg), approximately 80%. In addition, the “inhibition of arginine gingipain, Rgp” value in assay [5] is on record as “does not inhibit”.
